Experimental data from patent US20250197820A1, “NUCLEIC ACID POLYMERASE AND ITS USE IN PRODUCING NON-DNA NUCLEOTIDE POLYMERS” (UNITED KINGDOM RESEARCH AND INNOVATION, priority 2021, published 2025).

Tests used:
2M = biological target: T1, 2M (Thermococcus gorgonarius, UniProt P56689, A485L/D141A/E143A/E664K/F545L/I521L/K592A/T541G/V93Q/Y409G); experiment: Steady-state kinetics of single nucleotide incorporation by 2M; format: biochemical; conditions: single nucleotide incorporation from 2′OMe-RNA primer
T1 construct: made in house; host or cells: E. coli BL21 CodonPlus-RIL
Protocol: Steady-state kinetic parameters for NTP incorporation by 2M were determined by performing initial velocity measurements of single incorporations of either ATP, 2′OMe-ATP, or MOE-ATP. To generate the 2′OMe-RNA/DNA substrate, a 20-mer 2′OMe-RNA primer FD was 5′ 6-carboxyfluorescein end-labeled and annealed to the 52-mer DNA template BFL770 (Supplementary Table 1) at a 1:1.2 molar ratio. The reactions were performed at 50° C. in a mixture containing 1× Thermopol buffer, 6 mM Mg^2+, 100 nM 2′OMe-RNA/DNA substrate, and at NTP concentrations ranging from 0.5-250 μM. Enzyme concentrations and reaction times were selected to maintain initial velocity conditions. The 25 μL reactions were stopped by addition of a quenching solution containing 100 mM EDTA, 80% deionized formamide, 0.25 mg/ml bromophenol blue and 0.25 mg/ml xylene cyanol. Moreover, less than 20% of the primers were extended as required for steady-state conditions.
Product and substrate were separated on a 22% denaturing (8 M urea) polyacrylamide gel. The resulting bands were quantified using a Cytiva Typhoon RGB imager in fluorescence mode. Steady-state kinetic parameters (KM, kcat) were determined by fitting the data to the Michaelis-Menten equation. The data are the means and standard error from three independent experiments.

TGK = TGK (Thermococcus gorgonarius, UniProt P56689, A485L/D141A/E143A/E664K/V93Q/Y409G); conditions: ATP incorporation from an RNA primer; cited from earlier work
Sub_KRas_12 [G12D] RNA = experiment: 2′OMezyme RNA cleavage in trans, KRAS G12D substrate; format: biochemical, human
Protocol: (§1) RNA cleavage assays were performed in trans using PAGE-purified 2′OMezymes and RNA substrates, annealed as described above and incubated at 37° C. in 2′OMezyme selection buffer (30 mM EPPS pH 7.4, 150 mM KCl, 1 mM MgCl2), or 30 mM EPP pH 8.5, 150 mM KCl, 25 mM MgCl2, supplemented with RNasin ribonuclease inhibitor (Promega, USA). In Mg^2+ titration experiments, 2′OMezyme selection buffer was supplemented with additional magnesium chloride (MgCl2); in pH titration experiments, 150 mM KCl, 1 mM MgCl2 plus 50 mM buffer as follows was used: […] (pH 5.0-6.0), EPPS (pH 6.5-8.75), CHES (pH 9.0-12.0). For magnesium free reactions, 30 mM EPPS pH 7.4, 150 mM KCl, 5 mM EDTA was used.
Pseudo first-order reaction rates (kobs) under single-turnover pre-steady-state (Km/kcat) conditions were determined from three independent reactions with (separately annealed) catalyst at 5 μM and substrate at 1 μM, as described previously^8, fit using Prism 9 (GraphPad Software, USA). For multiple turnover reactions, 1 μM substrate was reacted with 10 nM 2′OMezyme at 37° C. in 2′OMezyme selection buffer.

[1] = 2′OMezyme serum stability; format: in vitro ADME; conditions: 37° C., 120 h
Protocol: PAGE-purified 2′OMezyme “R15/5-K” and DNAzyme “1023_KRasC” were annealed in water as described above, then incubated (at 5 μM) at 37° C. in 95% human serum (MilliporeSigma, Germany). Full-length catalyst remaining was quantified on Urea-PAGE gels stained with SYBR Gold (ThermoFisher Scientific, USA).

[2] = system: ‘wild type’ (wt) KRAS RNA; experiment: 2′OMezyme RNA cleavage in trans, wild type KRAS substrate; format: biochemical, human; conditions: differs from G12D substrate by one nucleotide (G35)
Protocol: as §1

[3] = system: 2.1 kb KRAS transcript (Sub_KRas_ORF); experiment: 2′OMezyme cleavage of long KRAS transcripts; format: biochemical, human; conditions: 37° C., pH 7.4, 1 mM Mg^2+, 65 h
Protocol: Human cDNA clones for KRAS (transcript variant b, accession no. NM_004985) and CTNNB1 (transcript variant 1, accession no. NM_001904) in plasmids pCMV6-XL6 (SP6 promoter) (cat. no. SC109374) and pCMV6-XL5 (T7 promoter) (cat. no. SC107921), respectively, were obtained from OriGene, USA. Site-directed mutagenesis was performed using a QuikChange II kit (Agilent Technologies, USA), according to the manufacturer's protocol; KRAS mutations G12D (c.35G>A) and G13D ([…]), and CTNNB1 mutation S33Y (c.98C>A) were introduced using primer sets shown in Supplementary Table 2 (“Quik_KRAS_G12D_Fw/Rev”, “Quik_KRAS_G13D_Fw/Rev” or “Quik_CTNNB_G12D_Fw/Rev”) and resulting plasmids cloned and verified by Sanger sequencing (Source Biosciences, UK). Long RNA substrates equivalent to full KRAS and CTNNB1 mRNA transcripts bearing 5′ fluorescein (“Sub_KRas_ORF” and “Sub_CTNNB1_ORF”, respectively) were prepared using HiScribe T7 and SP6 RNA synthesis kits (NEB, USA), according to the manufacturer's protocol, with a 4:1 ratio of 5′-Fluorescein-ApG dinucleotide (IBA Life Sciences, Germany) to GTP, using template plasmids linearised using XmaI (NEB, USA). Reactions were subsequently treated with TURBO DNase (Invitrogen/Thermo Fisher Scientific, USA) and RNA transcripts purified using RNeasy mini kits (Qiagen, Germany). […]

VEGF165 [4] = biological target: T2, VEGF165 (Homo sapiens, UniProt P15692-4 P15692-4:27-191); experiment: SPR; overall mean +/-29; PBS + 0.1% Tween20, 20 C; double-exponential fit; conditions: tags: biotinylated, Bio-Techne, captured on Neutravidin chip; chain copies: 2
Protocol: (§2) 2′OMe/MOE-RNA aptamers were synthesized from RNA primer Prim1 and 3′-biotinylated DNA template Temp_ARC224 (Supplementary Table 1) as described in section “Synthesis of 2′OMezymes for characterization” using 2′OMe/MOE-NTPs. 2′OMe/MOE-RNA aptamers were annealed at 1-10 μM in nuclease-free water by heating to 95° C. for 5 min and equilibrating at RT for 10 min. They were then diluted and analysed in PBS+0.1% (v/v) Tween20 (PBS-Tw). Surface Plasmon Resonance (SPR) measurements were made using a BIAcore 2000 instrument (GE Life Sciences, UK) at a flow rate of 20 μLmin⁻¹ at 20° C. CM4 sensor chip (GE Life Sciences, UK) surfaces were coated with Neutravidin (Pierce 31000, ThermoFisher Scientific, USA) surfaces (˜8000 RU per flow cell) using an amine coupling kit (GE Life Sciences, UK) and flowing in 5 mM NaOAc (sodium acetate), pH 5.5. Chips were equilibrated in PBS Tw and left to flow overnight until signal drift had settled. ˜2000 RU biotinylated human VEGF165 (Bio-Techne, USA) was captured (except for the reference cell) before blocking with excess free biotin. 50 μL aptamer samples at a series of concentrations (500 nM, 250 nM, 125 nM, 62.5 nM, 31.3 nM, 15.6 nM, 7.8 nM, 3.9 nM) were injected for 150 s and dissociation was recorded for 600 s, in PBS-Tw. Single injections of aptamers outside of the concentration series were performed at 100 nM (50 μL) in PBS-Tw. […]

[5] = system: 901 bp DNA template (sfGFP under T7 promoter); experiment: 2′OMe-RNA transcription reactions with RGVG-M6; format: biochemical; conditions: compared to 2M; dependent on high concentrations of Mn2+
Protocol: DNA template for transcription reactions was created by PCR-amplifying a 901-bp region on a plasmid encoding sfGFP under a T7 promoter. The PCR used 0.5 μM forward primer “5T7.for” and 0.5 μM reverse primer “pCUN_Do.rev”; cycling conditions were 95° C. for 30 s, 30×[95° C. for 10 s, 69° C. for 30 s, 72° C. for 30 s], 72° C. for 2 min.
For very permissive conditions, reactions comprised 125 nM DNA template, 200 nM T7 RNAP WT or its variant RGVG-M613, 1.5 mM MnCl2, 7.5 mM each NTP or 1 mM each 2′OMe-NTP, 0.1 U yeast inorganic pyrophosphatase. In order to compare the yield of 2′OMe-RNA synthesis by 2M and RGVG-M6, reactions were run under equimolar nucleic acid input of 0.5 pmol primer (2M) and 0.5 pmol DNA template (50 nM, RGVG-M6), and 50 nM RGVG-M6 polymerase with a polymerase:template ratio of 1:1 as described in 13. Reactions were treated with Turbo DNase and Proteinase K followed by denaturing PAGE.

VEGF165 [6] = biological target: T2, VEGF165; experiment: SPR; overall mean +/-16; PBS + 0.1% Tween20, 20 C; double-exponential fit; conditions: tags: biotinylated, Bio-Techne, captured on Neutravidin chip; chain copies: 2
Protocol: as §2

VEGF165 [7] = biological target: T2, VEGF165; experiment: SPR; overall mean +/-88; PBS + 0.1% Tween20, 20 C; double-exponential fit; conditions: tags: biotinylated, Bio-Techne, captured on Neutravidin chip; chain copies: 2
Protocol: as §2

For `Nc1ncnc2c1ncn2[C@@H]1O[C@H](COP(=O)(O)OP(=O)(O)OP(=O)(O)O)[C@@H](O)[C@H]1O` [ATP], the “Vmax/kcat values for incorporation” value (2M) is listed as “essentially identical” and the Km (TGK) is listed as 13.3 µM.

In the case of “R15/5-K: RNA endonuclease 2′OMezyme (all 2′OMe-RNA) specific for KRAS RNA c.26 - 44, G12D allele (CCUACGCACGUGACCCAUGACGGACAGAGAAGGCAUGACAGACUGCUCCAA; all 2'-O-methyl, backbone not given here)”, the multiple-turnover catalysis (Sub_KRas_12 [G12D] RNA; 10 nM 2′OMezyme, 1 μM substrate) is reported as “capable of multiple-turnover catalysis”, the kcat (Sub_KRas_12 [G12D] RNA; 1 mM Mg^2+, pH 7.4, 37° C., single turnover) is reported as 3.06e-05 s⁻¹ and the “reduction of single-turnover rate compared with optimal conditions” value (Sub_KRas_12 [G12D] RNA; 1 mM Mg^2+, pH 7.4 vs 25 mM Mg^2+, pH 8.5) is reported as “approximately 50%”. For the same molecule, the kcat (Sub_KRas_12 [G12D] RNA; 5 mM EDTA, pH 7.4, 37° C. (absence of Mg^2+)) was 2.8e-07 s⁻¹, the kcat (Sub_KRas_12 [G12D] RNA; 25 mM Mg^2+, pH 8.5, 37° C., single turnover, 5 μM 2′OMezyme, 1 μM substrate) was 6.67e-05 s⁻¹ and the activity retained (Sub_KRas_12 [G12D] RNA; quasi-physiological low-Mg^2+ regime (0.5-1 mM Mg^2+)) was 70-80%. For the same molecule, the “degradation (or loss in activity) after incubation in human serum” value [1] was “no significant degradation”, the “cleavage of wt KRAS RNA” value [2] was “essentially no cleavage” and the “cleavage of wt KRAS transcript or G13D (c.38G>A) transcript” value [3] was “virtually no cleavage”. The “cleavage of long structured KRAS transcript bearing G12D” value ([3]; G12D (c.35G>A)) was “able to invade and cleave”.

CGATATGCAGTTTGAGAAGTCGCGCATTCG (XNA, 2'-OMe G and U, 2'-O-MOE A and C) [ARC224 2'OMe-GU MOE-AC] gave a Kd (VEGF165 [4]) of 0.03 µM.

B1: RGVG-M6: T7 RNA polymerase variant (P266L, S430P, N433T, E593G, S633P, Y639V, V685A, H784G, F849I, F880Y) (protein, UniProt P00573 1-883, looked up, variant P266L S430P N433T E593G S633P Y639V V685A H784G F849I F880Y)
T7 RNA polymerase: MNTINIAKNDFSDIELAAIPFNTLADHYGERLAREQLALEHESYEMGEARFRKMFERQLKAGEVADNAAAKPLITTLLPKMIARINDWFEEVKAKRGKRPTAFQFLQEIKPEAVAYITIKTTLACLTSADNTTVQAVASAIGRAIEDEARFGRIRDLEAKHFKKNVEEQLNKRVGHVYKKAFMQVVEADMLSKGLLGGEAWSSWHKEDSIHVGVRCIEMLIESTGMVSLHRQNAGVVGQDSETIELAPEYAEAIATRAGALAGISLMFQPCVVPPKPWTGITGGGYWANGRRPLALVRTHSKKALMRYEDVYMPEVYKAINIAQNTAWKINKKVLAVANVITKWKHCPVEDIPAIEREELPMKPEDIDMNPEALTAWKRAAAAVYRKDKARKSRRISLEFMLEQANKFANHKAIWFPYNMDWRGRVYAVPMFTPQGNDMTKGLLTLAKGKPIGKEGYYWLKIHGANCAGVDKVPFPERIKFIEENHENIMACAKSPLENTWWAEQDSPFCFLAFCFEYAGVQHHGLSYNCSLPLAFDGSCSGIQHFSAMLRDEVGGRAVNLLPSETVQDIYGIVAKKVNEILQADAINGTDNGVVTVTDENTGEISEKVKLGTKALAGQWLAYGVTRSVTKRPVMTLAVGSKEFGFRQQVLEDTIQPAIDSGKGLMFTQPNQAAGYMAKLIWESASVTVVAAVEAMNWLKSAAKLLAAEVKDKKTGEILRKRCAVHWVTPDGFPVWQEYKKPIQTRLNLMFLGQFRLQPTINTNKDSEIDAHKQESGIAPNFVGSQDGSHLRKTVVWAHEKYGIESFALIHDSFGTIPADAANLFKAVRETMVDTYESCDVLADFYDQIADQLHESQLDKMPALPAKGNLNLRDILESDYAFA
With B1 the “2′OMe-RNA synthesis activity (in words)” value [5] was “modest”.

For CGATATGCAGTTTGAGAAGTCGCGCATTCG (XNA, all 2'-OMe (A,C,G,U)) [ARC224 2'OMe], the Kd (VEGF165 [6]) was 0.023 µM.

In the case of CGATATGCAGTTTGAGAAGTCGCGCATTCG (XNA, 2'-OMe U, 2'-O-MOE A, C and G) [ARC224 2'OMe-U MOE-ACG], the Kd (VEGF165 [7]) is reported as 0.092 µM.
